According to ChEMBL document CHEMBL3399999, “Anti-trypanosomal cadinanes synthesized by transannular cyclization of the natural sesquiterpene lactone nobilin” (Bioorg Med Chem, 2015):
pIC50: −log10 of the molar value.

Columns and labels:
[1] = Selectivity index, ratio of IC50 for rat L6 cells to IC50 for bloodstream forms of Trypanosoma brucei rhodesiense STIB 900; format: toxicity, cell-based; conditions: read-out: Ratio IC50
L6 = assay: Cytotoxicity against rat L6 cells; format: cell-based
[2] = test system: Trypanosoma brucei rhodesiense; assay: Antiprotozoal activity against bloodstream forms of Trypanosoma brucei rhodesiense STIB 900 after 70 hrs by Alamar blue assay; format: functional, organism-based; conditions: STIB 900, 70 h

SMILES	pIC50 [2]	selectivity ratio [1]	pIC50 (L6)
C=C(C(=O)O)[C@H]1[C@@H]2C=C(C)[C@@H](O)C[C@H]2[C@](C)(O)C[C@@H]1OC(=O)/C(C)=C\C	4.30	> 2	< 4.00
C=C1C(=O)O[C@@]23C=C(C)[C@@H](O)C[C@@H]2[C@@H](C)C[C@H](OC(=O)/C(C)=C\C)[C@@H]13	6.34	2.4	5.95
C=C(C(=O)O)[C@H]1[C@@H]2C=C(C)C(=O)C[C@@H]2[C@@H](C)C[C@@H]1OC(=O)/C(C)=C\C	4.51	1.6	4.31
C=C(C)C(=O)O[C@H]1C/C(C)=C/C[C@H](O)/C(C)=C\C2OC(=O)C(=C)[C@@H]21 (single isomer, unassigned)	5.81	6.1	5.03
Nc1nc(N)nc(Nc2ccc([As]3SCC(CO)S3)cc2)n1 (stereo unspecified) [MELARSOPROL]	–	> 5000	4.54
C=C1C(=O)O[C@@H]2/C=C(/C)[C@@H](O)C/C=C(\C)C[C@H](OC(=O)/C(C)=C\C)[C@@H]12 [NOBILIN]	5.50	2.1	5.18

The remaining compounds from weak to strong by pIC50 [2], led by results:

pIC50 [2]	SMILES	selectivity ratio [1]	pIC50 (L6)
4.83	C=C(C(=O)O)[C@H]1[C@@H]2C=C(C)[C@@H](O)C[C@@H]2[C@](C)(O)C[C@@H]1OC(=O)/C(C)=C\C	3.3	4.31
5.46	C=C1C(=O)OC2/C=C(/C)[C@@H](O)C/C=C(\C)C[C@H](OC(=O)/C(C)=C/C)[C@@H]12 (single isomer, unassigned)	2.9	4.99
5.84	C=C1C(=O)O[C@]23C=C(C)[C@@H](O)C[C@@H]2[C@H](C)C[C@H](OC(=O)/C(C)=C\C)[C@@H]13	1.5	5.67
